# pKi: −log10 of the molar value.
# Experiments:
# Adenosine receptor A2b [1] = target: T1, Adenosine receptor A2b (Homo sapiens, UniProt P29275); test: biochemical
# T1 sequence (P29275 whole entry): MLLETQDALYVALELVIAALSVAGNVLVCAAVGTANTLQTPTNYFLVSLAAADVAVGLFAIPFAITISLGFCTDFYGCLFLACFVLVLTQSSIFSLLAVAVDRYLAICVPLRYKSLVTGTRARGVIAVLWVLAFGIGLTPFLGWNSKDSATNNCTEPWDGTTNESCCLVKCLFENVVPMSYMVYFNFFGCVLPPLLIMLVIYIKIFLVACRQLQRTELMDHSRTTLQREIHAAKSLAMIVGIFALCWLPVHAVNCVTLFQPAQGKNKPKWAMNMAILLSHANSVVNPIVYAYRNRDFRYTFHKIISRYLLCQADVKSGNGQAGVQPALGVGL
# Description: (§1) Displacement of specific [3H]DPCPX binding at human adenosine A2B receptor expressed in HEK293 cells.
# Adenosine receptor A3 = target: T2, Adenosine receptor A3 (Homo sapiens, UniProt P0DMS8); test: Displacement of specific [3H]MRE3008-F20 binding at human adenosine A3 receptor expressed in CHO cells.; type: cell-based
# T2 sequence (P0DMS8 whole entry): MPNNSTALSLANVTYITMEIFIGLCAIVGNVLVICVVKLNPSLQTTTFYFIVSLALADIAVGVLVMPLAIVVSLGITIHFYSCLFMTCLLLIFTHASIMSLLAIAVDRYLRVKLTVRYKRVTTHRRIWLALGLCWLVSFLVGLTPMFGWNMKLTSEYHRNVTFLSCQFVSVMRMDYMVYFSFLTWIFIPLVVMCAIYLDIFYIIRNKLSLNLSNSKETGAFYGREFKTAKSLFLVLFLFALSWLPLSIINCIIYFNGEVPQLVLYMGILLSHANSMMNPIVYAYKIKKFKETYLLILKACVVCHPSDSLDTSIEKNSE
# Adenosine receptor A1 [2] = target: T3, Adenosine receptor A1 (Homo sapiens, UniProt P30542); test: biochemical
# T3 sequence (P30542 whole entry): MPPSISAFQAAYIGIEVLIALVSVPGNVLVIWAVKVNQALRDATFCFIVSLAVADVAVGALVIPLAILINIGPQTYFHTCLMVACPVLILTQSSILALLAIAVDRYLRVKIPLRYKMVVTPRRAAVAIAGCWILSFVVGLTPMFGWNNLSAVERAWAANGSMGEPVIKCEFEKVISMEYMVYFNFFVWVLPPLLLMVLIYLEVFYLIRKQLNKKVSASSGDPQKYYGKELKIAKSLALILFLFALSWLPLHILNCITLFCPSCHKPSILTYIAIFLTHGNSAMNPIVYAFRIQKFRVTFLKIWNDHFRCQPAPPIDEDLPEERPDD
# Description: Displacement of specific [3H]DPCPX binding at human Adenosine A1 receptor expressed in CHO cells.
# Adenosine receptor A2a [3] = target: T4, Adenosine receptor A2a (Homo sapiens, UniProt P29274); test: biochemical
# T4 sequence (P29274 whole entry): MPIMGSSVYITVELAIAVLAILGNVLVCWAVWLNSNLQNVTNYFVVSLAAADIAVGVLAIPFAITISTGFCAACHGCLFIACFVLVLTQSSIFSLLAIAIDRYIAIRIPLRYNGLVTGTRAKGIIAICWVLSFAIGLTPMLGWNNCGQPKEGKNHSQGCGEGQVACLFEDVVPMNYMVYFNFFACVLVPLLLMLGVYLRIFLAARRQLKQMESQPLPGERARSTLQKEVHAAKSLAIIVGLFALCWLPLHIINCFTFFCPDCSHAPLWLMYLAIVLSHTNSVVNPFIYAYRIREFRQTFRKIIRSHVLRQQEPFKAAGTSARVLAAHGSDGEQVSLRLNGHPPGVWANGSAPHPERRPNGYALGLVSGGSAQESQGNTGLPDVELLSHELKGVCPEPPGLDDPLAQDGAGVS
# Adenosine receptor A2a [4] = target: T4, Adenosine receptor A2a; test: Displacement of [3H]-SCH- 58261 binding at human Adenosine A2A receptor expressed in HEK293 cells; ranges from 49-72; type: cell-based
# Adenosine receptor A1 [5] = target: T3, Adenosine receptor A1; test: Displacement of [3H]DPCPX from human Adenosine A1 receptor expressed in CHO cells; ranges from 3420-3788; type: cell-based
# Adenosine receptor A2a [6] = target: T4, Adenosine receptor A2a; test: Displacement of [3H]-SCH- 58261 binding at human Adenosine A2A receptor expressed in HEK293 cells; ranges from 0.69-0.92; type: cell-based
# Adenosine receptor A1 [7] = target: T3, Adenosine receptor A1; test: Displacement of [3H]-DPCPX from human Adenosine A1 receptor expressed in CHO cells; ranges from 2153-2891; type: cell-based
# Adenosine receptor A2a [8] = target: T4, Adenosine receptor A2a; test: Displacement of [3H]-SCH- 58261 binding at human Adenosine A2A receptor expressed in HEK293 cells; ranges from 48.9-52.4; type: cell-based
# Adenosine receptor A1 [9] = target: T3, Adenosine receptor A1; test: Displacement of [3H]DPCPX binding at human Adenosine A1 receptor expressed in CHO cells; ranges from 8783-9911; type: cell-based
# Adenosine receptor A2a [10] = target: T4, Adenosine receptor A2a; test: Displacement of [3H]-SCH- 58261 binding at human Adenosine A2A receptor expressed in HEK293 cells; ranges from 66-85; type: cell-based
# Adenosine receptor A1 [11] = target: T3, Adenosine receptor A1; test: Displacement of [3H]DPCPX binding at human Adenosine A1 receptor expressed in CHO cells; ranges from 5697-7171; type: cell-based
# Adenosine receptor A2a [12] = target: T4, Adenosine receptor A2a; test: Displacement of [3H]-SCH- 58261 binding at human Adenosine A2A receptor expressed in HEK293 cells; ranges from 129-152; type: cell-based
# Adenosine receptor A1 [13] = target: T3, Adenosine receptor A1; test: Displacement of [3H]-DPCPX from human Adenosine A1 receptor expressed in CHO cells; ranges from 107-181; type: cell-based
# Adenosine receptor A2b [14] = target: T1, Adenosine receptor A2b; conditions: hek293
# Description: as §1
# Adenosine receptor A2a [15] = target: T4, Adenosine receptor A2a; test: Displacement of [3H]-SCH- 58261 binding at human Adenosine A2A receptor expressed in HEK293 cells; ranges from 98-144; type: cell-based
# Adenosine receptor A1 [16] = target: T3, Adenosine receptor A1; test: Displacement of [3H]DPCPX from human Adenosine A1 receptor expressed in CHO cells; ranges from 9038-9773; type: cell-based
# Adenosine receptor A2a [17] = target: T4, Adenosine receptor A2a; test: Displacement of [3H]-SCH- 58261 from human Adenosine A2A receptor expressed in HEK293 cells; ranges from 4.95-6.08; type: cell-based
# Adenosine receptor A1 [18] = target: T3, Adenosine receptor A1; test: Displacement of [3H]DPCPX from human Adenosine A1 receptor expressed in CHO cells; ranges from 1460-2201; type: cell-based
# Adenosine receptor A1 [19] = target: T3, Adenosine receptor A1; test: Displacement of [3H]-DPCPX binding at human Adenosine A1 receptor expressed in CHO cells; ranges from 9257-9817; type: cell-based
# Adenosine receptor A2a [20] = target: T4, Adenosine receptor A2a; test: biochemical; remark: listed apart in the source
# Adenosine receptor A1 [21] = target: T3, Adenosine receptor A1; test: Displacement of [3H]DPCPX binding at human Adenosine A1 receptor expressed in CHO cells; ranges from 363-514; type: cell-based
# Adenosine receptor A2a [22] = target: T4, Adenosine receptor A2a; test: biochemical; remark: listed apart in the source
# Adenosine receptor A1 [23] = target: T3, Adenosine receptor A1; test: Displacement of [3H]DPCPX from human Adenosine A1 receptor expressed in CHO cells; ranges from 324-420; type: cell-based
pKi (Adenosine receptor A2b [1]),pKi (Adenosine receptor A3),pKi (Adenosine receptor A1 [2]),pKi (Adenosine receptor A2a [3]),SMILES,other results
< 5.00,< 5.00,6.75,9.74,N/C(=N\O)c1ccc(CCn2ncc3c2nc(N)n2nc(-c4ccco4)nc32)cc1,–
< 5.00,< 5.00,5.19,7.07,N#Cc1ccc(CCCn2ncc3c2nc(N)n2nc(-c4ccco4)nc32)cc1,–
< 5.00,< 5.00,5.99,9.00,Nc1nc2c(cnn2CCCc2ccc([N+](=O)[O-])cc2)c2nc(-c3ccco3)nn12,–
< 5.00,< 5.00,6.24,9.89,Nc1ccc(CCn2ncc3c2nc(N)n2nc(-c4ccco4)nc32)cc1,–
< 5.00,< 5.00,6.38,8.32,CC(=O)Nc1ccc(CCn2ncc3c2nc(N)n2nc(-c4ccco4)nc32)cc1,–
< 5.00,< 5.00,–,–,Nc1nc2c(cnn2CCc2ccc(S(=O)(=O)N(CCO)CCO)cc2)c2nc(-c3ccco3)nn12,pKi (Adenosine receptor A2a [6]): 9.10; pKi (Adenosine receptor A1 [7]): 5.60
< 5.00,< 5.00,7.22,8.22,N/C(=N/O)c1ccc(CCCn2ncc3c2nc(N)n2nc(-c4ccco4)nc32)cc1,–
< 5.00,< 5.00,–,–,Nc1nc2c(cnn2CCc2ccc(S(=O)(=O)NCC(=O)O)cc2)c2nc(-c3ccco3)nn12,pKi (Adenosine receptor A2a [8]): 7.30; pKi (Adenosine receptor A1 [9]): 5.03
< 5.00,< 5.00,6.72,7.00,Nc1nc2c(cnn2CCc2ccc(S(=O)(=O)O)cc2)c2nc(-c3ccco3)nn12,–
< 5.00,< 5.00,–,–,Nc1nc2c(cnn2CCCc2cc3c(cc2S(=O)(=O)O)OCO3)c2nc(-c3ccco3)nn12,pKi (Adenosine receptor A2a [10]): 7.12; pKi (Adenosine receptor A1 [11]): 5.19
< 5.00,< 5.00,5.58,8.88,Nc1nc2c(cnn2CCc2ccc(S(N)(=O)=O)cc2)c2nc(-c3ccco3)nn12,–
< 5.00,< 5.00,6.25,8.96,Nc1nc2c(cnn2CCCc2ccc(N(CCO)CCO)cc2)c2nc(-c3ccco3)nn12,–
< 5.00,< 5.00,7.12,7.26,N=C(N)c1ccc(CCCn2ncc3c2nc(N)n2nc(-c4ccco4)nc32)cc1,–
< 5.00,< 5.00,5.67,9.66,Nc1ccc(CCCn2ncc3c2nc(N)n2nc(-c4ccco4)nc32)cc1,–
< 5.00,< 5.00,5.35,8.40,CCOC(=O)c1ccc(CCCn2ncc3c2nc(N)n2nc(-c4ccco4)nc32)cc1,–

# Second part, the compound before the results:
SMILES,pKi (Adenosine receptor A2b [1]),pKi (Adenosine receptor A3),pKi (Adenosine receptor A1 [2]),pKi (Adenosine receptor A2a [3]),other results
CCOC(=O)COc1ccc(CCn2ncc3c2nc(N)n2nc(-c4ccco4)nc32)cc1,< 5.00,< 5.00,5.38,9.37,–
Nc1nc2c(cnn2CCc2ccc(N(CCO)CCO)cc2)c2nc(-c3ccco3)nn12,< 5.00,< 5.00,6.91,9.92,–
NCc1ccc(CCCn2ncc3c2nc(N)n2nc(-c4ccco4)nc32)cc1,< 5.00,< 5.00,7.22,8.22,–
Nc1nc2c(cnn2CCCc2ccc3c(c2)O[C@H](C(=O)O)O3)c2nc(-c3ccco3)nn12,< 5.00,< 5.00,–,–,pKi (Adenosine receptor A2a [4]): 7.23; pKi (Adenosine receptor A1 [5]): 5.44
Nc1nc2c(cnn2CCCc2ccc(S(=O)(=O)O)cc2)c2nc(-c3ccco3)nn12,< 5.00,< 5.00,–,–,pKi (Adenosine receptor A2a [12]): 6.85; pKi (Adenosine receptor A1 [13]): 6.86
Nc1nc2c(cnn2CCc2ccc(S(=O)(=O)N(CCCl)CCCl)cc2)c2nc(-c3ccco3)nn12,< 5.00,< 5.00,5.28,9.23,–
Nc1nc2c(cnn2CCCc2ccc3c(c2)OC(C(=O)O)(C(=O)O)O3)c2nc(-c3ccco3)nn12 [listing 1 of 2 here],–,–,–,–,pKi (Adenosine receptor A3; cho): < 5.00; pKi (Adenosine receptor A2b [14]): < 5.00; pKi (Adenosine receptor A2a [15]): 6.92; pKi (Adenosine receptor A1 [16]): 5.03
CCOC(=O)[C@@H]1Oc2ccc(CCCn3ncc4c3nc(N)n3nc(-c5ccco5)nc43)cc2O1,< 5.00,< 5.00,–,–,pKi (Adenosine receptor A2a [17]): 8.26; pKi (Adenosine receptor A1 [18]): 5.75
Nc1nc2c(cnn2CCCc2ccc(C(=O)O)cc2)c2nc(-c3ccco3)nn12,< 5.00,< 5.00,5.30,8.36,–
Nc1nc2c(cnn2CCCc2ccc3c(c2)OC(C(=O)O)(C(=O)O)O3)c2nc(-c3ccco3)nn12 [listing 2 of 2 here],< 5.00,< 5.00,–,–,pKi (Adenosine receptor A1 [19]): 5.02; pKi (Adenosine receptor A2a [15]): 6.92
Nc1nc2c(cnn2CCCc2ccc3c(c2)OC(CO)(CO)O3)c2nc(-c3ccco3)nn12,< 5.00,< 5.00,–,–,pKi (Adenosine receptor A2a [20]): 9.72; pKi (Adenosine receptor A1 [21]): 6.36
CN1CCN(S(=O)(=O)c2ccc(CCn3ncc4c3nc(N)n3nc(-c5ccco5)nc43)cc2)CC1,< 5.00,< 5.00,–,–,pKi (Adenosine receptor A2a [22]): 8.42; pKi (Adenosine receptor A1 [23]): 6.43
Nc1nc2c(cnn2CCCc2ccccc2)c2nc(-c3ccco3)nn12 [SCH-63390],< 5.00,–,6.46,8.92,–

# Source: ChEMBL document CHEMBL1135389, “7-Substituted 5-amino-2-(2-furyl)pyrazolo[4,3-e]-1,2,4-triazolo[1,5-c]pyrimidines as A2A adenosine receptor antagonists: a study on the importance of modifications at the side chain on the activity and solubility” (J Med Chem, 2002)
